# Test results taken from ChEMBL document CHEMBL3045391, “Synthesis and biological evaluation of 5,7-diaryl-4,4-dimethyl-4,5,6,7-tetrahydropyridino[3,4-d]-1,2,3-thiadiazoles” (2007).
# Activity calls are given as the source filed them. The calls are words filed in the database; no cut-off is given here.
# What was measured:
# Nannizzia gypsea [1] = test: Antifungal activity against Microsporum gypseum at 500 ppm after 72 to 96 hr by disk diffusion method; format: functional; details: read-out: IZ
# Nannizzia gypsea [2] = test: Antifungal activity against Microsporum gypseum at 200 ppm after 72 to 96 hr by disk diffusion method; format: functional; details: read-out: IZ
# Rhizopus [3] = test: Antifungal activity against Rhizopus at 500 ppm after 72 to 96 hr by disk diffusion method; format: functional; details: read-out: IZ
# Nannizzia gypsea [4] = test: Antifungal activity against Microsporum gypseum at 100 ppm after 72 to 96 hr by disk diffusion method; format: functional; details: read-out: IZ
# Rhizopus [5] = test: Antifungal activity against Rhizopus at 200 ppm after 72 to 96 hr by disk diffusion method; format: functional; details: read-out: IZ
# Vibrio cholerae [6] = test: Antibacterial activity against Vibrio cholerae at 100 ppm after 24 hr by disk diffusion method; format: functional; details: read-out: IZ
# Streptococcus [7] = test: Antibacterial activity against beta-hemolytic Streptococcus at 500 ppm after 24 hr by disk diffusion method; format: functional; details: read-out: IZ
# Streptococcus [8] = test: Antibacterial activity against beta-hemolytic Streptococcus at 100 ppm after 24 hr by disk diffusion method; format: functional, organism-based
# Streptococcus [9] = test: Antibacterial activity against beta-hemolytic Streptococcus at 200 ppm after 24 hr by disk diffusion method; format: functional; details: read-out: IZ
# Staphylococcus aureus [10] = test: Antibacterial activity against Staphylococcus aureus at 500 ppm after 24 hr by disk diffusion method; format: functional; details: read-out: IZ
# Staphylococcus aureus [11] = test: Antibacterial activity against Staphylococcus aureus at 200 ppm after 24 hr by disk diffusion method; format: functional; details: read-out: IZ
# Staphylococcus aureus [12] = test: Antibacterial activity against Staphylococcus aureus at 100 ppm after 24 hr by disk diffusion method; format: functional
# Rhizopus [13] = test: Antifungal activity against Rhizopus at 100 ppm after 72 to 96 hr by disk diffusion method; format: functional
# Mucor [14] = test: Antifungal activity against Mucor at 500 ppm after 72 to 96 hr by disk diffusion method; format: functional; details: read-out: IZ
# Mucor [15] = test: Antifungal activity against Mucor at 200 ppm after 72 to 96 hr by disk diffusion method; format: functional; details: read-out: IZ
# Mucor [16] = test: Antifungal activity against Mucor at 100 ppm after 72 to 96 hr by disk diffusion method; format: functional
# Aspergillus flavus [17] = test: Antifungal activity against Aspergillus flavus at 500 ppm after 72 to 96 hr by disk diffusion method; format: functional; details: read-out: IZ
# Aspergillus flavus [18] = test: Antifungal activity against Aspergillus flavus at 200 ppm after 72 to 96 hr by disk diffusion method; format: functional; details: read-out: IZ
# Pseudomonas [19] = test: Antibacterial activity against Pseudomonas at 500 ppm after 24 hr by disk diffusion method; format: functional; details: read-out: IZ
# Aspergillus flavus [20] = test: Antifungal activity against Aspergillus flavus at 100 ppm after 72 to 96 hr by disk diffusion method; format: functional; details: read-out: IZ
# Pseudomonas [21] = test: Antibacterial activity against Pseudomonas at 200 ppm after 24 hr by disk diffusion method; format: functional; details: read-out: IZ
# Pseudomonas [22] = test: Antibacterial activity against Pseudomonas at 100 ppm after 24 hr by disk diffusion method; format: functional
# Klebsiella pneumoniae [23] = test: Antibacterial activity against Klebsiella pneumoniae at 500 ppm after 24 hr by disk diffusion method; format: functional; details: read-out: IZ
# Klebsiella pneumoniae [24] = test: Antibacterial activity against Klebsiella pneumoniae at 200 ppm after 24 hr by disk diffusion method; format: functional; details: read-out: IZ
# Escherichia coli [25] = test: Antibacterial activity against Escherichia coli at 500 ppm after 24 hr by disk diffusion method; format: functional; details: read-out: IZ
# Klebsiella pneumoniae [26] = test: Antibacterial activity against Klebsiella pneumoniae at 100 ppm after 24 hr by disk diffusion method; format: functional; details: read-out: IZ
# Escherichia coli [27] = test: Antibacterial activity against Escherichia coli at 200 ppm after 24 hr by disk diffusion method; format: functional; details: read-out: IZ
# Escherichia coli [28] = test: Antibacterial activity against Escherichia coli at 100 ppm after 24 hr by disk diffusion method; format: functional, organism-based
# Shigella flexneri [29] = test: Antibacterial activity against Shigella flexneri at 500 ppm after 24 hr by disk diffusion method; format: functional; details: read-out: IZ
# Shigella flexneri [30] = test: Antibacterial activity against Shigella flexneri at 200 ppm after 24 hr by disk diffusion method; format: functional; details: read-out: IZ
# Salmonella typhi [31] = test: Antibacterial activity against Salmonella enterica subsp. enterica serovar Typhi at 200 ppm after 24 hr by disk diffusion method; format: functional; details: read-out: IZ
# Vibrio cholerae [32] = test: Antibacterial activity against Vibrio cholerae at 500 ppm after 24 hr by disk diffusion method; format: functional; details: read-out: IZ
# Salmonella typhi [33] = test: Antibacterial activity against Salmonella enterica subsp. enterica serovar Typhi at 100 ppm after 24 hr by disk diffusion method; format: functional
# Vibrio cholerae [34] = test: Antibacterial activity against Vibrio cholerae at 200 ppm after 24 hr by disk diffusion method; format: functional; details: read-out: IZ
# Shigella flexneri [35] = test: Antibacterial activity against Shigella flexneri at 100 ppm after 24 hr by disk diffusion method; format: functional
# Salmonella typhi [36] = test: Antibacterial activity against Salmonella enterica subsp. enterica serovar Typhi at 500 ppm after 24 hr by disk diffusion method; format: functional; details: read-out: IZ
smiles,measurement,setting,value
CC1(C)c2nnsc2C(c2ccc(Cl)cc2)NC1c1ccc(Cl)cc1 (configuration not stated),zone of inhibition at 500 ppm,Nannizzia gypsea [1],22 mm
same,zone of inhibition at 200 ppm,Nannizzia gypsea [2],17 mm
same,zone of inhibition at 500 ppm,Rhizopus [3],22 mm
same,zone of inhibition at 100 ppm,Nannizzia gypsea [4],12 mm
same,zone of inhibition at 200 ppm,Rhizopus [5],12 mm
same,zone of inhibition at 100 ppm,Vibrio cholerae [6],12 mm
same,zone of inhibition at 500 ppm,Streptococcus [7],30 mm
same,inhibition zone (IZ),Streptococcus [8],inactive
same,zone of inhibition at 200 ppm,Streptococcus [9],12 mm
same,zone of inhibition at 500 ppm,Staphylococcus aureus [10],30 mm
same,zone of inhibition at 200 ppm,Staphylococcus aureus [11],22 mm
same,zone of inhibition at 100 ppm,Staphylococcus aureus [12]; read-out: IZ,12 mm
same,inhibition zone (IZ),Rhizopus [13],inactive
same,zone of inhibition at 500 ppm,Mucor [14],12 mm
same,zone of inhibition at 200 ppm,Mucor [15],12 mm
same,inhibition zone (IZ),Mucor [16],inactive
same,zone of inhibition at 500 ppm,Aspergillus flavus [17],17 mm
same,zone of inhibition at 200 ppm,Aspergillus flavus [18],12 mm
same,zone of inhibition at 500 ppm,Pseudomonas [19],12 mm
same,zone of inhibition at 100 ppm,Aspergillus flavus [20],12 mm
same,zone of inhibition at 200 ppm,Pseudomonas [21],12 mm
same,inhibition zone (IZ),Pseudomonas [22],inactive
same,zone of inhibition at 500 ppm,Klebsiella pneumoniae [23],22 mm
same,zone of inhibition at 200 ppm,Klebsiella pneumoniae [24],17 mm
same,zone of inhibition at 500 ppm,Escherichia coli [25],17 mm
same,zone of inhibition at 100 ppm,Klebsiella pneumoniae [26],12 mm
same,zone of inhibition at 200 ppm,Escherichia coli [27],12 mm
same,inhibition zone (IZ),Escherichia coli [28],inactive
same,zone of inhibition at 500 ppm,Shigella flexneri [29],12 mm
same,zone of inhibition at 200 ppm,Shigella flexneri [30],12 mm
same,zone of inhibition at 200 ppm,Salmonella typhi [31],17 mm
same,zone of inhibition at 500 ppm,Vibrio cholerae [32],12 mm
same,inhibition zone (IZ),Salmonella typhi [33],inactive
same,zone of inhibition at 200 ppm,Vibrio cholerae [34],12 mm
same,zone of inhibition at 100 ppm,Shigella flexneri [35]; read-out: IZ,12 mm
same,zone of inhibition at 500 ppm,Salmonella typhi [36],17 mm
CC1(C)c2nnsc2C(c2ccccc2)NC1c1ccccc1 (configuration not stated),zone of inhibition at 500 ppm,Nannizzia gypsea [1],30 mm
same,zone of inhibition at 200 ppm,Nannizzia gypsea [2],17 mm
same,zone of inhibition at 500 ppm,Rhizopus [3],17 mm
same,zone of inhibition at 100 ppm,Nannizzia gypsea [4],12 mm
same,zone of inhibition at 200 ppm,Rhizopus [5],17 mm
same,zone of inhibition at 100 ppm,Vibrio cholerae [6],12 mm
same,zone of inhibition at 500 ppm,Streptococcus [7],22 mm
same,inhibition zone (IZ),Streptococcus [8],inactive
same,zone of inhibition at 200 ppm,Streptococcus [9],12 mm
same,zone of inhibition at 500 ppm,Staphylococcus aureus [10],22 mm
same,zone of inhibition at 200 ppm,Staphylococcus aureus [11],17 mm
same,inhibition zone (IZ),Staphylococcus aureus [12],inactive
same,zone of inhibition at 100 ppm,Rhizopus [13]; read-out: IZ,12 mm
same,zone of inhibition at 500 ppm,Mucor [14],17 mm
same,zone of inhibition at 200 ppm,Mucor [15],12 mm
same,inhibition zone (IZ),Mucor [16],inactive
same,zone of inhibition at 500 ppm,Aspergillus flavus [17],17 mm
same,zone of inhibition at 200 ppm,Aspergillus flavus [18],12 mm
same,zone of inhibition at 500 ppm,Pseudomonas [19],12 mm
same,zone of inhibition at 100 ppm,Aspergillus flavus [20],12 mm
same,zone of inhibition at 200 ppm,Pseudomonas [21],12 mm
same,zone of inhibition at 100 ppm,Pseudomonas [22]; read-out: IZ,12 mm
same,zone of inhibition at 500 ppm,Klebsiella pneumoniae [23],22 mm
same,zone of inhibition at 200 ppm,Klebsiella pneumoniae [24],17 mm
same,zone of inhibition at 500 ppm,Escherichia coli [25],12 mm
same,zone of inhibition at 100 ppm,Klebsiella pneumoniae [26],12 mm
same,zone of inhibition at 200 ppm,Escherichia coli [27],12 mm
same,inhibition zone (IZ),Escherichia coli [28],inactive
same,zone of inhibition at 500 ppm,Shigella flexneri [29],17 mm
same,zone of inhibition at 200 ppm,Shigella flexneri [30],12 mm
same,zone of inhibition at 200 ppm,Salmonella typhi [31],12 mm
same,zone of inhibition at 500 ppm,Vibrio cholerae [32],17 mm
same,zone of inhibition at 100 ppm,Salmonella typhi [33]; read-out: IZ,12 mm
same,zone of inhibition at 200 ppm,Vibrio cholerae [34],12 mm
same,inhibition zone (IZ),Shigella flexneri [35],inactive
same,zone of inhibition at 500 ppm,Salmonella typhi [36],12 mm
